Experimental data as given in article PMC7412250, “Novel Chrysin-De-Allyl PAC-1 Hybrid Analogues as Anticancer Compounds: Design, Synthesis, and Biological Evaluation” (Molecules, 2020).
Read-outs that look alike come from different tables or passages of the source.

What was measured:
MDA-MB-231 cells [1] = experiment: MTT cytotoxicity assay, MDA-MB-231; assay type: cell-based, human; conditions: MDA-MB-231, MTT; for IC50: Homo sapiens, mean ± SD of two independent experiments in triplicate, read-out: IC50 (cell survival)
Method: The synthesized chrysin derivatives were evaluated for cytotoxic efficacy in the human breast cancer cell line, MDA-MB-231, using the 3-(4,5-dimethylthiazol-2yl)-2,5-diphenyltetrazolium bromide (MTT) colorimetric assay and doxorubicin was used as a reference anticancer drug.
(§1) A panel of cancer cell lines, including breast (MDA-MB-231, BT20), brain (U251), and colon (HCT116), as well as a normal cell line (human mammary epithelial cells: HMECs), were grown as adherent monolayers in flasks with Dulbecco’s Modified Eagle Medium (DMEM), supplemented with 10% fetal bovine serum (FBS) and 1% penicillin and streptomycin in a humidified incubator with 5% CO2 at 37 °C.
The (3-(4,5-dimethylthiazol-2-yl)-2,5-diphenyltetrazolium bromide) (MTT) assay was used to determine the cytotoxicity of the 15 chrysin derivatives in the above-mentioned cell lines. Briefly, cells were harvested with 0.05% trypsin, 2.21 mM ethylenediaminetetraacetic acid (EDTA), 1× from Corning (Corning, NY, USA), and suspended at a final density of 5 × 10^3 cells/well. Cells were seeded (180 μL/well) into 96-well plates. Initially, four different concentrations of each compound were added to find the compounds with the greatest antiproliferative efficacy in the MDA-MB-231 cell line (0, 1, 10, and 100 μM). Subsequently, […] different concentrations […] of each compound were added to the remaining cell lines mentioned above. After 68 h of incubation, 20 μL of the MTT solution (4 mg/mL) were added to each well, and the plates were incubated for 4 h. This allowed viable cells to biotransform the yellow-colored MTT into dark-blue formazan crystals. Subsequently, the medium was discarded, and 150 μL of DMSO were added to each well to dissolve the formazan crystals. The absorbance was determined at 590 nm using a DTX 880 multimode detector (Beckman Coulter life sciences, IN, USA). […] The IC50 values were calculated from the cell survival percentages obtained for each compound tested at different concentrations. Similarly, the cytotoxicity of the test compounds was compared to the normal cell line (HMEC).

MDA-MB-231 cells [2] = tested on: MDA-MB-231 cells; parameters: method as in PMID 30774307; conditions: cited from earlier work; for IC50: MDA-MB-231, MTT, data taken from ref 29, read-out: IC50 (cell survival)
U-251 = experiment: MTT cytotoxicity assay, U-251; assay type: cell-based; conditions: Homo sapiens, mean ± SEM of three independent experiments in triplicate, read-out: IC50 Brain Cancer U-251
Method: as §1
(§2) The (3-(4,5-dimethylthiazol-2-yl)-2,5-diphenyltetrazolium bromide) (MTT) assay was used to determine the cytotoxicity of the 15 chrysin derivatives in the above-mentioned cell lines. Briefly, cells were harvested with 0.05% trypsin, 2.21 mM ethylenediaminetetraacetic acid (EDTA), 1× from Corning (Corning, NY, USA), and suspended at a final density of 5 × 10^3 cells/well. Cells were seeded (180 μL/well) into 96-well plates. Initially, four different concentrations of each compound were added to find the compounds with the greatest antiproliferative efficacy in the MDA-MB-231 cell line (0, 1, 10, and 100 μM). Subsequently, […] different concentrations […] of each compound were added to the remaining cell lines mentioned above. After 68 h of incubation, 20 μL of the MTT solution (4 mg/mL) were added to each well, and the plates were incubated for 4 h. This allowed viable cells to biotransform the yellow-colored MTT into dark-blue formazan crystals. Subsequently, the medium was discarded, and 150 μL of DMSO were added to each well to dissolve the formazan crystals. The absorbance was determined at 590 nm using a DTX 880 multimode detector (Beckman Coulter life sciences, IN, USA). The IC50 ± SD concentrations were calculated from three experiments performed in triplicate/duplicate. The IC50 values were calculated from the cell survival percentages obtained for each compound tested at different concentrations. Similarly, the cytotoxicity of the test compounds was compared to the normal cell line (HMEC).

[3] = tested on: HMEC (human mammary epithelial cells); experiment: MTT cytotoxicity assay, normal cells HMEC; assay type: cell-based; conditions: mean ± SEM of three independent experiments in triplicate
Method: as §1, §2

BT-20 = experiment: MTT cytotoxicity assay, BT-20; assay type: cell-based; conditions: Homo sapiens, mean ± SEM of three independent experiments in triplicate, read-out: IC50 Breast Cancer BT-20
Method: as §1, §2

HCT116 = experiment: MTT cytotoxicity assay, HCT116; assay type: cell-based; conditions: Homo sapiens, HCT-116, mean ± SEM of three independent experiments in triplicate, read-out: IC50 Colon Cancer HCT116
Method: as §1, §2

Row | SMILES | IC50 (MDA-MB-231 cells [1]) | cytotoxic efficacy (in words) (MDA-MB-231 cells [1]) | further results
1 | COc1cccc2c1C(=O)c1c(O)c3c(c(O)c1C2=O)C[C@@](O)(C(=O)CO)C[C@@H]3O[C@H]1C[C@H](N)[C@H](O)[C@H](C)O1 [Doxorubicin, reference compound] | 0.2 ± 0.1 µM | – | –
2 | O=C(COc1cc(O)c2c(=O)cc(-c3ccccc3)oc2c1)N/N=C/c1cccnc1 [Compound 4l, (E,Z)-2-((5-Hydroxy-4-oxo-2-phenyl-4H-chromen-7-yl)oxy)-N’-(pyridin-3-ylmethylene)acetohydrazide] | – | did not have significant cytotoxic efficacy | –
3 | O=C(COc1cc(O)c2c(=O)cc(-c3ccccc3)oc2c1)N/N=C/c1c(O)ccc2ccccc12 [Compound 4n, (E,Z)-2-((5-Hydroxy-4-oxo-2-phenyl-4H-chromen-7-yl)oxy)-N’-((2-hydroxynaphthalen-1-yl)methylene)acetohydrazide] | – | inactive | –
4 | O=C(COc1cc(O)c2c(=O)cc(-c3ccccc3)oc2c1)N/N=C/c1c(O)cc(O)cc1O [Compound 4j, (E,Z)-2-((5-Hydroxy-4-oxo-2-phenyl-4H-chromen-7-yl)oxy)-N’-(2,4,6-trihydroxybenzylidene)acetohydrazide] | – | totally inactive | –
5 | O=C(COc1cc(O)c2c(=O)cc(-c3ccccc3)oc2c1)N/N=C/c1ccco1 [Compound 4k, (E,Z)-N’-(Furan-2-ylmethylene)-2-((5-hydroxy-4-oxo-2-phenyl-4H-chromen-7-yl)oxy)acetohydrazide] | 66.7 ± 11.1 µM | did not have significant cytotoxic efficacy | –
6 | O=C(COc1cc(O)c2c(=O)cc(-c3ccccc3)oc2c1)N/N=C/c1ccccn1 [Compound 4m, (E,Z)-2-((5-Hydroxy-4-oxo-2-phenyl-4H-chromen-7-yl)oxy)-N’-(pyridin-2-ylmethylene)acetohydrazide] | – | did not have significant cytotoxic efficacy | –
7 | COc1ccc(/C=N/NC(=O)COc2cc(O)c3c(=O)cc(-c4ccccc4)oc3c2)cc1 [Compound 4f, (E,Z)-2-((5-Hydroxy-4-oxo-2-phenyl-4H-chromen-7-yl)oxy)-N’-(4-methoxybenzylidene)acetohydrazide] | – | – | IC50 (MDA-MB-231 cells [2]): 11.9 ± 3.5 µM; times more efficacious than 4e (MDA-MB-231 cells [2]; MDA-MB-231 cytotoxic efficacy relative to 4e): ~ 5 times
8 | O=C(COc1cc(O)c2c(=O)cc(-c3ccccc3)oc2c1)N/N=C/c1ccc(O)cc1 [Compound 4e, (E,Z)-2-((5-Hydroxy-4-oxo-2-phenyl-4H-chromen-7-yl)oxy)-N’-(4-hydroxybenzylidene)acetohydrazide] | – | – | IC50 (MDA-MB-231 cells [2]): 54.8 ± 5.7 µM
9 | O=C(COc1cc(O)c2c(=O)cc(-c3ccccc3)oc2c1)N/N=C/c1ccccc1O [Compound 4a, (E,Z)-2-((5-Hydroxy-4-oxo-2-phenyl-4H-chromen-7-yl)oxy)-N’-(2-hydroxybenzylidene)acetohydrazide] | 6.8 ± 2.76 µM | – | IC50 (U-251): 8.63 ± 4.86 µM; IC50 [3]: 7.12 ± 4.55 µM; IC50 (BT-20): 4.41 ± 0.99 µM; IC50 (HCT116): 2.88 ± 0.09 µM
10 | COc1ccccc1/C=N/NC(=O)COc1cc(O)c2c(=O)cc(-c3ccccc3)oc2c1 [Compound 4c, (E,Z)-2-((5-Hydroxy-4-oxo-2-phenyl-4H-chromen-7-yl)oxy)-N’-(2-methoxybenzylidene)acetohydrazide] | 23.3 ± 6.98 µM | – | –
11 | O=C(COc1cc(O)c2c(=O)cc(-c3ccccc3)oc2c1)N/N=C/c1ccccc1 [Compound 4b, (E,Z)-N’-Benzylidene-2-((5-hydroxy-4-oxo-2-phenyl-4H-chromen-7-yl)oxy)acetohydrazide] | 9.4 ± 3.38 µM | – | –
12 | O=C(COc1cc(O)c2c(=O)cc(-c3ccccc3)oc2c1)N/N=C/c1cc([N+](=O)[O-])ccc1O [Compound 4o] | 7.9 ± 1.82 µM | – | IC50 (U-251): 11.3 ± 2.84 µM; IC50 [3]: 7.17 ± 4.1 µM; IC50 (BT-20): 7.25 ± 1.82 µM; IC50 (HCT116): 3.85 ± 0.34 µM
